Read-outs that look alike come from different tables or passages of the source.
System: MCF7 cells
Assay: TCA metabolite profiling by LC/MS in MCF7
Type: cell-based, human
Details: for EC50: Homo sapiens, MCF7, MCF7, single experiment, read-out: EC50 α-ketoglutarate; for Aspartate level / Citrate level / Fumarate level / Glutamate level / Isocitrate level / Lactate level / Malate level / Pyruvate level / Succinate level / α-ketoglutarate level: MCF7, 3 DT, normalized to DMSO = 1, n = 3
Protocol: MCF7 cells were plated at 20,000 cells/well in 24-well plate; approximately 14–24 hours after seeding, cells were treated with DMSO (vehicle) or the indicated compounds diluted in DMSO. Cells were incubated for three different incubation times: 48 hours (1 DT), 96 hours (2 DT), and […] (3 DT). After treatment, cells were harvested and the collected pellet was stored at -80°C. For additional details see Supplemental Methods and Supplementary Table 1. […]
SA-β-gal Cell samples were lysed after treatment with expression was determined using the Senescence Cells 100 µL lysis buffer and transferred to a 96-well plate.
Histochemical Staining Kit (Sigma, CS0030) following 30 µL of each sample were transferred into deep well the vendor ’s manual. Images were taken at 100x by bright plates using TECAN-EVO Workstation. Samples were field microscopy (Leica DMiL). treated for derivatization of the metabolites of interest and internal standards. For this, 50 µL of derivatization reagent
Proliferation studies after washouts (EdU Click- and 80 µL of internal standard (IS, SupplementaryTable iT®) 1), were added with multidrop, plates were vortexed for 5 mins and let sit for one hour at 4 °C. The IS used were the Cells were plated onto poly-D-lysine D or 13C-labeled commercial analogues of nine of the ten coated 96-well plates at a density of 2,000–6,000 metabolites, prepared at 25 µM in water (Supplementary viable cells per well, and treated with abemaciblib or Table 1). The derivatization reagents (from Sigma), palbociclib at 1µM following the cell treatment and 3-nitrophenylhydrazine (0.5 M) and the coupling buffer washout schedule shown on Supplementary Figure 1A. [N-(3-Dimethylaminopropyl)-N′-ethylcarbodiimide An EdU (5-ethynyl-2’-deoxyuridine) pulse was added hydrochloride (1M) were freshly prepared in 75:24:1 one hour prior to the end of study at a final concentration methanol/water/pyridine. of 10 µM as described in the kit protocol (Click-iT After derivatization, a liquid-liquid extraction step High Content Imaging EdU Incorporation kit (Life with ethyl acetate was carried out in two steps; the upper Technologies cat# C10351)). The cells were then fixed phase was transferred to a new deep-well plate with in the presence of 3.7% formaldehyde for 20 minutes at TECAN-EVO, and the joint extract was evaporated to 37°C, and permeabilized with 0.1% Triton-X 100 in PBS dryness with nitrogen, and reconstituted with 50% H2O/ for 10 minutes at 25°C, then washed twice with PBS. MetOH. A set of calibrants at 12 levels of the analytes They were blocked using 1% bovine serum albumin was derivatized in parallel following the same protocol.
(BSA) (Invitrogen #15260-037) for 1 hour at 25°C. EdU Samples were analyzed by LC─MS/MS under the detection was performed using the Click-iT High Content conditions described below. […]
Mass Spectrometer (qQq) with JetStream Electrospray
Objects were identified using an algorithm to Ionization (ESI) Source, coupled to a LC1290 Infinity detect nuclear staining with Hoechst 33342 dye. The High-Performance Liquid Chromatograph. The software relative levels and sub-cellular localization of EdU were for data collection and treatment was Agilent Masshunter determined through the respective intensities and locations Workstation. Mobile phases for chromatography were: of Alexa-488 fluorescence. mobile phase A: formic acid (5 mM) and ammonium formate (10 mM) in water; mobile phase B: acetonitrile.
Assessment of hypermethylation of histone H3 at 50% Acetonitrile/water were used to clean the lysine 9 (H3K9me3) injection needle after each injection. A reverse-phase chromatographic column (XBridge BEH C18 3.5 µm, MCF7 and EFM-19 cells were plated in 96-well 2.1 × 50 mm) from […] plates and treated at 20 µM (or a 3-fold dilution series) was used as stationary phase. Chromatographic separation […]
Tecan Genesis RSP100 liquid-handling system was used mobile phase A in 6 min; then to 5% in 0.1 min, maintained […]

Which EC50 (1 DT) does the source give for `CCN1CCN(Cc2ccc(Nc3ncc(F)c(-c4cc(F)c5nc(C)n(C(C)C)c5c4)n3)nc2)CC1` [abemaciclib, Abemaciclib] here?
The EC50 was 0.37 µM.

What about the EC50 (2 DT) of the same compound?
Its EC50 is 0.28 µM.

What about the EC50 (3DT) of the same compound?
Its EC50 is 0.73 µM.

What about the Aspartate level (0.5 µM) of the same compound?
Its Aspartate level is 0.72 ± 0.10.

And the Citrate level (0.5 µM)?
Its Citrate level is 1.20 ± 0.27.

What about the Fumarate level (0.5 µM) of the same compound?
The Fumarate level was 0.12 ± 0.02.

What about the Glutamate level (0.5 µM) of the same compound?
The Glutamate level was 0.71 ± 0.06.

And the Isocitrate level (0.5 µM)?
Its Isocitrate level is 1.90 ± 0.65.

And the Lactate level (0.5 µM)?
Its Lactate level is 0.30 ± 0.02.

What about the Malate level (0.5 µM) of the same compound?
The Malate level was 0.22 ± 0.01.

What about the Pyruvate level (0.5 µM) of the same compound?
The Pyruvate level was 1.22 ± 0.64.

What about the Succinate level (0.5 µM) of the same compound?
The Succinate level was 0.35 ± 0.08.

And the α-ketoglutarate level (0.5 µM)?
The α-ketoglutarate level was 0.13 ± 0.03.

What about the Aspartate level (2 µM) of the same compound?
Its Aspartate level is 0.47 ± 0.13.

What about the Citrate level (2 µM) of the same compound?
The Citrate level was 1.07 ± 0.3.

What about the Fumarate level (2 µM) of the same compound?
The Fumarate level was 0.12 ± 0.07.

What about the Glutamate level (2 µM) of the same compound?
The Glutamate level was 1.10 ± 0.38.

What about the Isocitrate level (2 µM) of the same compound?
Its Isocitrate level is 0.81 ± 0.52.

What about the Lactate level (2 µM) of the same compound?
The Lactate level was 0.38 ± 0.15.

And the Malate level (2 µM)?
The Malate level was 0.09 ± 0.03.

What about the Pyruvate level (2 µM) of the same compound?
Its Pyruvate level is 3.59 ± 1.65.

And the Succinate level (2 µM)?
Its Succinate level is 0.65 ± 0.23.

What about the α-ketoglutarate level (2 µM) of the same compound?
The α-ketoglutarate level was 0.08 ± 0.02.
